The values that follow come from publication PMC5518309 (ChemMedChem, 2014).

One may read the half-life as the time needed for the level to fall by half in the phase considered. A word on the EC50: it is the midpoint of the concentration-response curve. The low end stands for greater potency, the high end for weaker potency. Broadly, the Emax is the greatest response seen or fitted, relative to the assay's reference.

The nature of data set [1]: Stability test in human blood plasma. It is filed as in vitro ADME. The settings on record: human.
A short description of data set [2]: Metabolic stability in porcine liver homogenates. Type of data set: in vitro ADME. The settings on record: pig, porcine liver homogenate (supernatant).
The target of another data set is T1, hY1R (Homo sapiens, UniProt P25929).
T1 sequence (P25929 1-384): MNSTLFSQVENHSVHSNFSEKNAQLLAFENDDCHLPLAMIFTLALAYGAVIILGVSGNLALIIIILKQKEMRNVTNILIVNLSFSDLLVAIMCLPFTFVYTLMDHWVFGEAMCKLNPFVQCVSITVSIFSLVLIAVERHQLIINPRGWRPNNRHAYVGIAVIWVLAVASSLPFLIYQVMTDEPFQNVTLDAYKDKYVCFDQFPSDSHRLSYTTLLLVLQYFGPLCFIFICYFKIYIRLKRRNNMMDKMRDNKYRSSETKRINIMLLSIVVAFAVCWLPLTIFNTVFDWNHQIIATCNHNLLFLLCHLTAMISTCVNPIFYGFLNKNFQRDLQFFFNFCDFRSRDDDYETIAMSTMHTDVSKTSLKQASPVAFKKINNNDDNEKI
The data set is described as follows: Inositol phosphate accumulation assay, hY1R. Type of data set: cell-based.

The next data set addresses T2, hY5R (Homo sapiens, UniProt Q15761).
T2 sequence (Q15761 1-445): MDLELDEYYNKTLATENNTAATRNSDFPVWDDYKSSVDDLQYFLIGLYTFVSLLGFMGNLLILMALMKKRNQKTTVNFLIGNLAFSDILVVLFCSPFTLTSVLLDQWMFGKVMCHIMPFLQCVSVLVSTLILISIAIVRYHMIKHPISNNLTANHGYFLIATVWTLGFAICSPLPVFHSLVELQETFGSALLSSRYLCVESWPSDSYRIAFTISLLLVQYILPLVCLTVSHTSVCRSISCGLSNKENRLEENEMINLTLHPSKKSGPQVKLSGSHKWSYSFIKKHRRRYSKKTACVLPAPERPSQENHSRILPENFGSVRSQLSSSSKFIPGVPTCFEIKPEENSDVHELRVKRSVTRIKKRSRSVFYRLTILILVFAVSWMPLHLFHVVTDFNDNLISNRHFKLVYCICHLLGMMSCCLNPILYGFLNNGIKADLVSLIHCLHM
The data set is described as follows: Inositol phosphate accumulation assay, hY5R. It is filed as cell-based.

In another data set the target is hY4R (Homo sapiens, UniProt P50391). The data set is described as follows: Inositol phosphate accumulation assay, hY4R. Type of data set: cell-based.
The next data set has as its target T3, hY2R (Homo sapiens, UniProt P49146).
T3 sequence (P49146 1-381): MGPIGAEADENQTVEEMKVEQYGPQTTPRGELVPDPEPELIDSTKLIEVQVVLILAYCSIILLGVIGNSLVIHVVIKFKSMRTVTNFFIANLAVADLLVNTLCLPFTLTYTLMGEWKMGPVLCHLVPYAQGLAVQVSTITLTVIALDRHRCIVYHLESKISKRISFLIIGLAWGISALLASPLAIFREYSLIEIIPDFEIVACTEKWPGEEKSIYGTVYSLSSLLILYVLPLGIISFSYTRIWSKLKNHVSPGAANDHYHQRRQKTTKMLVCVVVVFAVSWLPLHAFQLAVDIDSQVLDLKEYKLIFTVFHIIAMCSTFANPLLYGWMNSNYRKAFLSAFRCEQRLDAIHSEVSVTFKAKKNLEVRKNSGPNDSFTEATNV
The data set is described as follows: Inositol phosphate accumulation assay, hY2R. It is filed as cell-based.

Structures are written as SMILES. Numbered stars: 1 amine (or outer) side, 2 acyl side, 3 side chain; on linkers, the order of the positions; unused ones are H or OH. Side chains are listed from the residue outwards. Peptide text beside a SMILES is read from it. * marks the point of attachment. X1 = CN(C)c1ccc2c(c1)Oc1cc(N(C)C)ccc1C21OC(=O)c2ccc(C(=O)*)cc21; γGlu = O=C(O)[C@H](CCC(=O)[*:2])N[*:1]; Propionyl = CCC(=O)* Where only a bound is given, the exact number is not on record here.

Sequence of hY4R (P50391 whole entry): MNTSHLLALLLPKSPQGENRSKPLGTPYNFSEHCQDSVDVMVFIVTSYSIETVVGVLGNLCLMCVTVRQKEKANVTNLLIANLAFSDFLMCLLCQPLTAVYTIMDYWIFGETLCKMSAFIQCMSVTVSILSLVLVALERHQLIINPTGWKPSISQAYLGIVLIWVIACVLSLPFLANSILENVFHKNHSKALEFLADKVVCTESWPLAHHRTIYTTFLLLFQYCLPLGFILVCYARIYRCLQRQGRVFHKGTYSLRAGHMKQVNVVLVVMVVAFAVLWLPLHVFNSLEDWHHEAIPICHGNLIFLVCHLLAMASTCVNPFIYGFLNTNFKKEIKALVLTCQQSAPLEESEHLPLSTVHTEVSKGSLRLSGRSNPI

Regarding `CCC(=O)N[C@@H](CCC(=O)NCCCC[C@H](NC(=O)[C@H](CC(N)=O)NC(=O)[C@@H](NC(=O)[C@H](Cc1ccc(O)cc1)NC(=O)[C@H](CCCNC(=N)N)NC(=O)[C@H](CCCNC(=N)N)NC(=O)[C@H](CC(C)C)NC(=O)[C@H](CC(=O)O)NC(=O)[C@H](C)NC(=O)[C@H](C)NC(=O)[C@H](Cc1ccc(O)cc1)NC(=O)[C@H](CCC(N)=O)NC(=O)[C@H](C)NC(=O)[C@H](CCSC)NC(=O)[C@H](CCC(N)=O)NC(=O)[C@H](CCC(=O)O)NC(=O)[C@@H]1CCCN1C(=O)[C@@H](NC(=O)[C@H](C)NC(=O)[C@H](CC(N)=O)NC(=O)[C@H](CC(=O)O)NC(=O)CNC(=O)[C@@H]1CCCN1C(=O)[C@H](Cc1ccc(O)cc1)NC(=O)[C@@H](NC(=O)[C@@H]1CCCN1C(=O)[C@H](CCC(=O)O)NC(=O)[C@H](CC(C)C)NC(=O)[C@@H]1CCCN1C(=O)c1ccc2c(c1)C1(OC2=O)c2ccc(N(C)C)cc2Oc2cc(N(C)C)ccc21)C(C)C)[C@@H](C)O)[C@@H](C)CC)C(=O)N[C@@H](CC(C)C)C(=O)N[C@H](C(=O)N[C@@H](CCCNC(=N)N)C(=O)N1CCC[C@H]1C(=O)N[C@@H](CCCNC(=N)N)C(=O)N[C@@H](Cc1ccc(O)cc1)C(N)=O)[C@@H](C)O)C(=O)O` [15b, TAMRA-[K^30(E-Prop)]hPP2–36] (X1-PLEPVYPGDNATPEQMAQYAADLRRYINK([γGlu-Propionyl])LTRPRY-NH2), the half-life at 10 μM in data set [1] was 19.7 ± 0.721 days; in data set [2], 1.95 ± 0.275 days.
Turning to `CCC(=O)N[C@@H](CCC(=O)NCCCC[C@H](NC(=O)[C@H](C)NC(=O)[C@H](Cc1ccc(O)cc1)NC(=O)[C@H](CCC(N)=O)NC(=O)[C@H](C)NC(=O)[C@H](CCSC)NC(=O)[C@H](CCC(N)=O)NC(=O)[C@H](CCC(=O)O)NC(=O)[C@@H]1CCCN1C(=O)[C@@H](NC(=O)[C@H](C)NC(=O)[C@H](CC(N)=O)NC(=O)[C@H](CC(=O)O)NC(=O)CNC(=O)[C@@H]1CCCN1C(=O)[C@H](Cc1ccc(O)cc1)NC(=O)[C@@H](NC(=O)[C@@H]1CCCN1C(=O)[C@H](CCC(=O)O)NC(=O)[C@H](CC(C)C)NC(=O)[C@@H]1CCCN1)C(C)C)[C@@H](C)O)C(=O)N[C@@H](CC(=O)O)C(=O)N[C@@H](CC(C)C)C(=O)N[C@@H](CCCNC(=N)N)C(=O)N[C@@H](CCCNC(=N)N)C(=O)N[C@@H](Cc1ccc(O)cc1)C(=O)N[C@H](C(=O)N[C@@H](CC(N)=O)C(=O)N[C@@H](CCSC)C(=O)N[C@@H](CC(C)C)C(=O)N[C@H](C(=O)N[C@@H](CCCNC(=N)N)C(=O)N1CCC[C@H]1C(=O)N[C@@H](CCCNC(=N)N)C(=O)N[C@@H](Cc1ccc(O)cc1)C(N)=O)[C@@H](C)O)[C@@H](C)CC)C(=O)O` [compound 9, [K^22(E-Prop)]hPP2–36] (H-PLEPVYPGDNATPEQMAQYAK([γGlu-Propionyl])DLRRYINMLTRPRY-NH2), the EC50 on hY1R is above 1000 nM; at hY5R it was 21.9 nM; on hY4R, 1.1 nM; at hY2R it was above 1000 nM. Moreover, the maximum response (Emax) at hY1R (read-out: hY1R Emax) worked out at 92 ± 4%; on hY5R (read-out: hY5R Emax), 83 ± 2%; at hY4R (read-out: hY4R Emax) it was 96 ± 6%; on hY2R (read-out: hY2R Emax), 88 ± 6%.
